From patent US20230089867A1, “CYCLIC PENTAMER COMPOUNDS AS PROPROTEIN CONVERTASE SUBTILISIN/KEXIN TYPE 9 (PCSK9) INHIBITORS FOR THE TREATMENT OF METABOLIC DISORDER” (Novartis AG, priority 2018, published 2023)
pIC50: −log10 of the molar value.

Molecular target: human PCSK9 (Homo sapiens, UniProt Q8NBP7)
Assay: PCSK9 ligand binding TR-FRET assay (interference with binding of human PCSK9 to human LDLR)
Settings: for Max % inhibition: PCSK9 FRET assay, efficacy (Amax), 100% = 1 uM unlabeled human PCSK9, 0% = DMSO; for pIC50: TR-FRET, human PCSK9 Alexa Fluor 647 / human LDLR extracellular domain-Europium Kryptate, read-out: PCSK9 FRET Assay IC50
Outline: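 Threefold compound dilutions were pre-incubated 30 min with PCSK9, after which 4 nM Europium Kryptate-tagged human LDLR ectodomain was added for a further 2 h.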

Sequence of human PCSK9 (Q8NBP7 153-692): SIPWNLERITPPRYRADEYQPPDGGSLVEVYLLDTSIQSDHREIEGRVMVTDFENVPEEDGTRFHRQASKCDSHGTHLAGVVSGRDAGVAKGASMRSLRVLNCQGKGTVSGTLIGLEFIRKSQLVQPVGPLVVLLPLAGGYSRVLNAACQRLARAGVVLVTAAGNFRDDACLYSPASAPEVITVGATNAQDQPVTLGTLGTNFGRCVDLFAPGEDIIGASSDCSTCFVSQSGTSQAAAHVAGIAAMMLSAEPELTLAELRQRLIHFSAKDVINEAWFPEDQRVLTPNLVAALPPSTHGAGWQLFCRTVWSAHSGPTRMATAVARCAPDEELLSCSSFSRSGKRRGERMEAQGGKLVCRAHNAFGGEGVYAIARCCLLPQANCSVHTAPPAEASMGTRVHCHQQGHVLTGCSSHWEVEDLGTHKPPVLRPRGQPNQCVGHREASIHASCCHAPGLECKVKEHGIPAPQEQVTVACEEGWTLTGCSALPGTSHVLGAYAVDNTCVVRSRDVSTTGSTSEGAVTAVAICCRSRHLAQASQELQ
Sequence of human PCSK9 (Q8NBP7 31-152 partner limits assumed): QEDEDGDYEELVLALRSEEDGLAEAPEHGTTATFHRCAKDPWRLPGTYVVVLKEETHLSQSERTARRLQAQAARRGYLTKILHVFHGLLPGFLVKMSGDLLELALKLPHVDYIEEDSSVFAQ

Row | SMILES | Max % inhibition [%] | pIC50
1 | COC[C@@H]1NC(=O)[C@H](C)N(Cc2ccc(Cl)cc2Oc2ccc(-c3cnc(CN4CCCC4)n3C)c(C)c2)C(=O)C[C@@H](Cc2ccccc2)C(=O)N(C)[C@@H](C)CNC(=O)C[C@H](Cc2ccc(Cl)cc2)N(C)C1=O [Compound 281, (2S,5S,8S,13S,16R)-16-benzyl-1-(4-chloro-2-(3-methyl-4-(1-methyl-2-(pyrrolidin-1-ylmethyl)-1H-imidazol-5-yl)phenoxy)benzyl)-8-(4-chlorobenzyl)-5-(methoxymethyl)-2,7,13,14-tetramethyl-1,4,7,11,14-pentaazacyclooctadecane-3,6,10,15,18-pentaone] | 89.62 | 9.00
2 | C=Cc1ncc(-c2ccc(Oc3cc(Cl)ccc3CN3C(=O)C[C@@H](Cc4ccccc4)C(=O)N(C)[C@@H](C)CNC(=O)C[C@H](Cc4ccc(Cl)cc4)N(C)C(=O)[C@H](COC)NC(=O)[C@@H]3C)cc2)n1C [Compound 282, (2S,5S,8S,13S,16R)-16-benzyl-1-(4-chloro-2-(4-(1-methyl-2-vinyl-1H-imidazol-5-yl)phenoxy)benzyl)-8-(4-chlorobenzyl)-5-(methoxymethyl)-2,7,13,14-tetramethyl-1,4,7,11,14-pentaazacyclooctadecane-3,6,10,15,18-pentaone] | 60.78 | 8.21
3 | COC[C@@H]1NC(=O)[C@H](CCCN2CCOCC2)N(Cc2ccc(Cl)cc2Oc2ccc(-c3cnc(CN(C)C)n3C)cc2)C(=O)C[C@@H](Cc2ccccc2)C(=O)N(C)[C@@H](C)[C@H](C)NC(=O)C[C@H](Cc2ccc(Cl)cc2)N(C)C1=O [Compound 283, (2S,5S,8S,12S,13S,16R)-16-benzyl-1-(4-chloro-2-(4-(2-((dimethylamino)methyl)-1-methyl-1H-imidazol-5-yl)phenoxy)benzyl)-8-(4-chlorobenzyl)-5-(methoxymethyl)-7,12,13,14-tetramethyl-2-(3-morpholinopropyl)-1,4,7,11,14-pentaazacyclooctadecane-3,6,10,15,18-pentaone] | 105.87 | 8.80
4 | COC[C@@H]1NC(=O)[C@H](CCCN(C)C)N(Cc2ccc(Cl)cc2Oc2ccc(-c3cnc(CN4CCCC4)n3C)cc2)C(=O)C[C@@H](Cc2ccccc2)C(=O)N(C)[C@H]2CCCC[C@@H]2NC(=O)C[C@H](Cc2ccc(Cl)cc2)N(C)C1=O [Compound 285, (4S,7S,10S,14R,16aS,20aS)-14-benzyl-11-(4-chloro-2-(4-(1-methyl-2-(pyrrolidin-1-ylmethyl)-1H-imidazol-5-yl)phenoxy)benzyl)-4-(4-chlorobenzyl)-10-(3-(dimethylamino)propyl)-7-(methoxymethyl)-5,16-dimethylhexadecahydrobenzo[l][1,4,7,11,14]pentaazacyclooctadecine-2,6,9,12,15(3H)-pentaone] | 90.24 | 8.68
5 | CN(C)Cc1ncc(-c2ccc(Oc3cc(Cl)ccc3CN3C(=O)C[C@@H](Cc4ccccc4)C(=O)N(C)[C@H]4CCCC[C@@H]4NC(=O)C[C@H](Cc4ccc(Cl)cc4)N(C)C(=O)[C@H](CO)NC(=O)[C@H]3CCC(=O)OC(C)(C)C)cc2)n1C [Compound 287, tert-butyl 3-((4S,7S,10R,14R,16aS,20aS)-14-benzyl-11-(4-chloro-2-(4-(2-((dimethylamino)methyl)-1-methyl-1H-imidazol-5-yl)phenoxy)benzyl)-4-(4-chlorobenzyl)-7-(hydroxymethyl)-5,16-dimethyl-2,6,9,12,15-pentaoxodocosahydrobenzo[l][1,4,7,11,14]pentaazacyclooctadecin-10-yl)propanoate] | 89.28 | 8.59
6 | COC[C@@H]1NC(=O)[C@@H](CCN(C)C)N(Cc2ccc(Cl)cc2Oc2ccc(-c3cnc(CN(C)C)n3C)cc2)C(=O)C[C@@H](Cc2ccccc2)C(=O)N(C)[C@H]2CCCC[C@@H]2NC(=O)C[C@H](Cc2ccc(Cl)cc2)N(C)C1=O [Compound 288, (4S,7S,10R,14R,16aS,20aS)-14-benzyl-11-(4-chloro-2-(4-(2-((dimethylamino)methyl)-1-methyl-1H-imidazol-5-yl)phenoxy)benzyl)-4-(4-chlorobenzyl)-10-(2-(dimethylamino)ethyl)-7-(methoxymethyl)-5,16-dimethylhexadecahydrobenzo[l][1,4,7,11,14]pentaazacyclooctadecine-2,6,9,12,15(3H)-pentaone] | 87.05 | 7.62

Continued, values first:

Row | Max % inhibition [%] | pIC50 | SMILES
7 | 100.09 | 9.22 | COC[C@@H]1NC(=O)[C@H](C)N(Cc2ccc(Cl)cc2Oc2ccc(-c3cnc(CN(C)C)n3C)cc2)C(=O)C[C@@H](Cc2cccnc2)C(=O)N(C)[C@H]2CCCC[C@@H]2NC(=O)C[C@H](Cc2ccc(Cl)cc2)N(C)C1=O [Compound 280, (4S,7S,10S,14R,16aS,20aS)-11-(4-chloro-2-(4-(2-((dimethylamino)methyl)-1-methyl-1H-imidazol-5-yl)phenoxy)benzyl)-4-(4-chlorobenzyl)-7-(methoxymethyl)-5,10,16-trimethyl-14-(pyridin-3-ylmethyl)hexadecahydrobenzo[l][1,4,7,11,14]pentaazacyclooctadecine-2,6,9,12,15(3H)-pentaone]
8 | 98.50 | 9.05 | COC[C@@H]1NC(=O)[C@H](C)N(Cc2ccc(Cl)cc2Oc2ccc(-c3cnc(CN(C)C)n3C)cc2)C(=O)C[C@@H](Cc2ccccn2)C(=O)N(C)[C@H]2CCCC[C@@H]2NC(=O)C[C@H](Cc2ccc(Cl)cc2)N(C)C1=O [Compound 284, (4S,7S,10S,14R,16aS,20aS)-11-(4-chloro-2-(4-(2-((dimethylamino)methyl)-1-methyl-1H-imidazol-5-yl)phenoxy)benzyl)-4-(4-chlorobenzyl)-7-(methoxymethyl)-5,10,16-trimethyl-14-(pyridin-2-ylmethyl)hexadecahydrobenzo[l][1,4,7,11,14]pentaazacyclooctadecine-2,6,9,12,15(3H)-pentaone]
9 | 59.34 | 9.15 | CC=CC[C@@H]1CC(=O)N(Cc2ccc(Cl)cc2Oc2ccc(-c3cnc(CN(C)C)n3C)cc2)[C@@H](C)C(=O)N[C@@H](COC)C(=O)N(C)[C@@H](Cc2ccc(Cl)cc2)CC(=O)N[C@H]2CCCC[C@@H]2N(C)C1=O [Compound 286, (4S,7S,10S,14R,16aS,20aS)-14-(but-2-en-1-yl)-11-(4-chloro-2-(4-(2-((dimethylamino)methyl)-1-methyl-1H-imidazol-5-yl)phenoxy)benzyl)-4-(4-chlorobenzyl)-7-(methoxymethyl)-5,10,16-trimethylhexadecahydrobenzo[l][1,4,7,11,14]pentaazacyclooctadecine-2,6,9,12,15(3H)-pentaone]
10 | 100.92 | 9.22 | C=CC[C@@H]1CC(=O)N(Cc2ccc(Cl)cc2Oc2ccc(-c3cnc(CN(C)C)n3C)cc2)[C@@H](C)C(=O)N[C@@H](COC)C(=O)N(C)[C@@H](Cc2ccc(Cl)cc2)CC(=O)N[C@@H](C)[C@H](C)N(C)C1=O [Compound 289, (2S,5S,8S,12S,13S,16R)-16-allyl-1-(4-chloro-2-(4-(2-((dimethylamino)methyl)-1-methyl-1H-imidazol-5-yl)phenoxy)benzyl)-8-(4-chlorobenzyl)-5-(methoxymethyl)-2,7,12,13,14-pentamethyl-1,4,7,11,14-pentaazacyclooctadecane-3,6,10,15,18-pentaone]
